Reference: US8158628B2, “Sulfonylated 1,2,3,4-tetrahydropyrrolo[1,2-a]pyrazine compounds and their use as pharmaceuticals” (Gruenenthal GmbH, priority 2009, dated 2012)

Columns and labels:
[1] = biological target: T1, human B1R (Homo sapiens, UniProt P46663); assay: FLIPR Ca2+ functional assay, B1R antagonism, human B1R in CHO K1 cells; type: cell-based; settings: test substance 10 μM; hB1R CHO K1 cells; agonist Lys-Des-Arg9 bradykinin at EC80; % of maximum achievable inhibition
T1 construct: expressed in transfected cells; host or cells: CHO K1 cells (Chinese hamster ovary), stably transfected
T1 sequence (P46663 1-353): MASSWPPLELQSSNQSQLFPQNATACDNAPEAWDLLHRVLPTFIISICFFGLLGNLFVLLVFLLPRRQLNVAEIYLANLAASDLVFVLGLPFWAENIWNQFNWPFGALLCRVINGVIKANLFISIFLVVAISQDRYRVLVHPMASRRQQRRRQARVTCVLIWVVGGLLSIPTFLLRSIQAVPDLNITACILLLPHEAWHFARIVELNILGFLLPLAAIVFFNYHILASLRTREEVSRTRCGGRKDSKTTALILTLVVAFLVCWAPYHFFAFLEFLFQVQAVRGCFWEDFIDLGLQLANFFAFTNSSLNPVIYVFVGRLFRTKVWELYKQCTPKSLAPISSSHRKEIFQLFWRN
In short: (§1)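 Stably transfected CHO K1 cells loaded with Fluo-4; Ca2+ fluorescence read on FLIPR (ex 488/em 540 nm). Compound preincubated 10-20 min, then agonist at EC80: Lys-Des-Arg9 bradykinin (human) or Des-Arg9 bradykinin (rat). % inhibition vs maximal inhibition; IC50 from concentration series, n=2-3, N>=2.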

[2] = biological target: T2, B1R of the rat (Rattus norvegicus, UniProt P97583); assay: FLIPR Ca2+ functional assay, B1R antagonism, rat B1R in CHO K1 cells; type: cell-based; settings: test substance 10 μM; rB1R CHO K1 cells; agonist Des-Arg9 bradykinin at EC80; % of maximum achievable inhibition
T2 construct: expressed in transfected cells; host or cells: CHO K1 cells (Chinese hamster ovary), stably transfected
T2 sequence (P97583 1-337): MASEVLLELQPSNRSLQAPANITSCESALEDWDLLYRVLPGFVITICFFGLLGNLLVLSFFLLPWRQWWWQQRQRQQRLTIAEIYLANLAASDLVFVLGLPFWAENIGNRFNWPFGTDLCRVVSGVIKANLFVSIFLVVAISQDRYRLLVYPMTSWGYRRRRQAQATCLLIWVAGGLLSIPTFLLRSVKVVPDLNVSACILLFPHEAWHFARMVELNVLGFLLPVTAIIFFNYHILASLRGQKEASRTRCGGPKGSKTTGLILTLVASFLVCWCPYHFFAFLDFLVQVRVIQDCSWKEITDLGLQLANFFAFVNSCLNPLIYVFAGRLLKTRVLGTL
In short: as §1

Structure (SMILES)	inhibition at 10 µM [1] [%]	inhibition at 10 µM [2] [%]
Cc1cccc(Cl)c1S(=O)(=O)N1CCn2cccc2C1COCC(=O)N(C)CCC1CCN(c2ccncc2)CC1 (stereo not shown) [Example 16, 2-((2-(2-Chloro-6-methylphenylsulfonyl)-1,2,3,4-tetrahydropyrrolo[1,2-a]pyrazin-1-yl)methoxy)-N-methyl-N-(2-(1-(pyridin-4-yl)piperidin-4-yl)ethyl)acetamide]	99.9	98.5
O=C(CC1c2cccn2CCN1S(=O)(=O)c1cccc(C(F)(F)F)c1)NC1CCCc2cc(CN3C4CCCC3CC4)ccc21 (stereo not shown) [Example 109, N-[6-(8-Azabicyclo[3.2.1]octan-8-yl-methyl)-1,2,3,4-tetrahydro-naphthalen-1-yl]-2-[2-[[3-(trifluoromethyl)phenyl]sulfonyl]-1,2,3,4-tetrahydro-pyrrolo[1,2-a]pyrazin-1-yl]-acetamide]	99.8	99.8
COc1ccc2cc(S(=O)(=O)N3CCn4cccc4C3CC(=O)NC3CCc4cc(CNC(C)(C)C)ccc4C3)ccc2c1 (stereo not shown) [Example 31, N-(6-((tert-Butylamino)methyl)-1,2,3,4-tetrahydronaphthalen-2-yl)-2-(2-(6-methoxynaphthalen-2-ylsulfonyl)-1,2,3,4-tetrahydropyrrolo[1,2-a]-pyrazin-1-yl)acetamide]	100	104
COc1ccc2cc(S(=O)(=O)N3CCn4cccc4C3CC(=O)NC3CCc4cc(CN5C6CCCC5CC6)ccc4C3)ccc2c1 (stereo not shown) [Example 103, N-[6-(8-Azabicyclo[3.2.1]octan-8-yl-methyl)-1,2,3,4-tetrahydro-naphthalen-2-yl]-2-[2-[(6-methoxy-naphthalen-2-yl)sulfonyl]-1,2,3,4-tetrahydro-pyrrolo[1,2-a]pyrazin-1-yl]-acetamide]	100	102
O=C(CC1c2cccn2CCN1S(=O)(=O)c1cccc(Cl)c1)NC1CCc2cc(CN3CCCCC3)ccc2C1 (stereo not shown) [Example 47, 2-(2-(3-chlorophenylsulfonyl)-1,2,3,4-tetrahydropyrrolo[1,2-a]-pyrazin-1-yl)-N-(6-(piperidin-1-ylmethyl)-1,2,3,4-tetrahydronaphthalen-2-yl)-acetamide]	99.9	106
COc1cc(C)c(S(=O)(=O)N2CCn3cccc3C2CC(=O)NC2CCNCC2(C)C)c(C)c1 (stereo not shown) [Example 17, N-(3,3-Dimethylpiperidin-4-yl)-2-(2-(4-methoxy-2,6-dimethylphenylsulfonyl)-1,2,3,4-tetrahydropyrrolo[1,2-a]pyrazin-1-yl)acetamide]	97.4	99.2
COc1cc(C)c(S(=O)(=O)N2CCn3cccc3C2COCC(=O)N2CCC(c3ccncc3)CC2)c(C)c1 (stereo not shown) [Example 34, 2-[[2-[(4-Methoxy-2,6-dimethyl-phenyl)sulfonyl]-1,2,3,4-tetrahydro-pyrrolo[1,2-a]pyrazin-1-yl]-methoxy]-1-(4-pyridin-4-yl-piperidin-1-yl)-ethanone]	99.2	103
Cc1ccc(S(=O)(=O)N2CCn3cccc3C2CC(=O)NC2CCCc3cc(CN4CCOCC4)ccc32)cc1Cl (stereo not shown) [Example 57, 2-[2-[(3-Chloro-4-methyl-phenyl)sulfonyl]-1,2,3,4-tetrahydro-pyrrolo[1,2-a]pyrazin-1-yl]-N-[6-(morpholin-4-yl-methyl)-1,2,3,4-tetrahydro-naphthalen-1-yl]-acetamide]	98.5	101

Other lines, results leading:

inhibition at 10 µM [1] [%]	inhibition at 10 µM [2] [%]	Structure (SMILES)
99.8	103	CNCc1ccc2c(c1)CCCC2NC(=O)CC1c2cccn2CCN1S(=O)(=O)c1ccc2cc(OC)ccc2c1 (stereo not shown) [Example 134, 2-[2-[(6-Methoxy-naphthalen-2-yl)sulfonyl]-1,2,3,4-tetrahydro-pyrrolo[1,2-a]pyrazin-1-yl]-N-[6-(methylamino-methyl)-1,2,3,4-tetrahydro-naphthalen-1-yl]-acetamide]
62.8	90.7	O=C(CC1c2cccn2CCN1S(=O)(=O)c1cccc(C(F)(F)F)c1)NC1CCc2cc(CN3CCCc4ccccc43)ccc2C1 (stereo not shown) [Example 69, N-[6-(1,2,3,4-Tetrahydro-quinolin-1-yl-methyl)-1,2,3,4-tetrahydro-naphthalen-2-yl]-2-[2-[[3-(trifluoromethyl)phenyl]sulfonyl]-1,2,3,4-tetrahydro-pyrrolo[1,2-a]pyrazin-1-yl]-acetamide]
97.8	102	COc1ccc2cc(S(=O)(=O)N3CCn4cccc4C3CC(=O)NC3CCCc4cc(CN5CCOCC5)ccc43)ccc2c1 (stereo not shown) [Example 120, 2-[2-[(6-Methoxy-naphthalen-2-yl)sulfonyl]-1,2,3,4-tetrahydro-pyrrolo[1,2-a]pyrazin-1-yl]-N-[6-(morpholin-4-yl-methyl)-1,2,3,4-tetrahydro-naphthalen-1-yl]-acetamide]
99.9	102	CN(C)Cc1ccc2c(c1)CCC(NC(=O)CC1c3cccn3CCN1S(=O)(=O)c1cccc(C(F)(F)F)c1)C2 (stereo not shown) [Example 92, N-[6-(Dimethylaminomethyl)-1,2,3,4-tetrahydro-naphthalen-2-yl]-2-[2-[[3-(trifluoromethyl)phenyl]sulfonyl]-1,2,3,4-tetrahydro-pyrrolo[1,2-a]pyrazin-1-yl]-acetamide]
99.8	101	CCC(C)NCc1ccc2c(c1)CCCC2NC(=O)CC1c2cccn2CCN1S(=O)(=O)c1cccc(C(F)(F)F)c1 (stereo not shown) [Example 131, N-[6-[(1-Methyl-propylamino)-methyl]-1,2,3,4-tetrahydro-naphthalen-1-yl]-2-[2-[[3-(trifluoromethyl)phenyl]sulfonyl]-1,2,3,4-tetrahydro-pyrrolo[1,2-a]pyrazin-1-yl]-acetamide]
100	103	Cc1ccc(S(=O)(=O)N2CCn3cccc3C2CC(=O)NC2CCc3cc(CN(C)C)ccc3C2)cc1 (stereo not shown) [Example 58, N-[6-(Dimethylaminomethyl)-1,2,3,4-tetrahydro-naphthalen-2-yl]-2-[2-(p-tolylsulfonyl)-1,2,3,4-tetrahydro-pyrrolo[1,2-a]pyrazin-1-yl]-acetamide]
99.9	96.8	Cc1ccc(S(=O)(=O)N2CCn3cccc3C2CC(=O)NC2CCc3cc(CNCc4ccccc4)ccc3C2)cc1 (stereo not shown) [Example 93, N-[6-[(Benzylamino)-methyl]-1,2,3,4-tetrahydro-naphthalen-2-yl]-2-[2-(p-tolylsulfonyl)-1,2,3,4-tetrahydro-pyrrolo[1,2-a]pyrazin-1-yl]-acetamide]
99.4	102	Cc1ccc(S(=O)(=O)N2CCn3cccc3C2CC(=O)NC2CCc3cc(CN4CCOCC4)ccc3C2)cc1 (stereo not shown) [Example 87, N-[6-(Morpholin-4-yl-methyl)-1,2,3,4-tetrahydro-naphthalen-2-yl]-2-[2-(p-tolylsulfonyl)-1,2,3,4-tetrahydro-pyrrolo[1,2-a]pyrazin-1-yl]-acetamide]
100	101	Cc1ccc(S(=O)(=O)N2CCn3cccc3C2CC(=O)NC2CCc3cc(CN4CCCC4)ccc3C2)cc1 (stereo not shown) [Example 123, 2-[2-(p-Tolylsulfonyl)-1,2,3,4-tetrahydro-pyrrolo[1,2-a]pyrazin-1-yl]-N-[6-(pyrrolidin-1-yl-methyl)-1,2,3,4-tetrahydro-naphthalen-2-yl]-acetamide]
99.8	76.2	CN1CCN(Cc2ccc3c(c2)CCCC3NC(=O)CC2c3cccn3CCN2S(=O)(=O)c2cccc(C(F)(F)F)c2)CC1 (stereo not shown) [Example 59, N-[6-[(4-Methyl-piperazin-1-yl)-methyl]-1,2,3,4-tetrahydro-naphthalen-1-yl]-2-[2-[[3-(trifluoromethyl)phenyl]sulfonyl]-1,2,3,4-tetrahydro-pyrrolo[1,2-a]pyrazin-1-yl]-acetamide]
99.1	98.7	CCC(C)NCc1ccc2c(c1)CCC(NC(=O)CC1c3cccn3CCN1S(=O)(=O)c1cccc(C(F)(F)F)c1)C2 (stereo not shown) [Example 65, N-[6-[(1-Methyl-propylamino)-methyl]-1,2,3,4-tetrahydro-naphthalen-2-yl]-2-[2-[[3-(trifluoromethyl)phenyl]sulfonyl]-1,2,3,4-tetrahydro-pyrrolo[1,2-a]pyrazin-1-yl]-acetamide]
99.3	101	O=C(CC1c2cccn2CCN1S(=O)(=O)c1cccc(C(F)(F)F)c1)NC1CCc2cc(CNCc3ccccc3)ccc2C1 (stereo not shown) [Example 83, N-[6-[(Benzylamino)-methyl]-1,2,3,4-tetrahydro-naphthalen-2-yl]-2-[2-[[3-(trifluoromethyl)phenyl]sulfonyl]-1,2,3,4-tetrahydro-pyrrolo[1,2-a]pyrazin-1-yl]-acetamide]
